For 2 molecules, IC50, Efficacy and EC50 results are on record in ChEMBL document CHEMBL1152299, “Indazole-based liver X receptor (LXR) modulators with maintained atherosclerotic lesion reduction activity but diminished stimulation of hepatic triglyceride synthesis” (J Med Chem, 2008).

Usually IC50 stands for the concentration needed to halve the response being measured. A higher IC50 goes with a need for much substance. Usually EC50 stands for the midpoint of the concentration-response curve.

The target in one assay is T1, Glucocorticoid receptor (Homo sapiens, UniProt P04150).
T1 sequence (P04150 whole entry): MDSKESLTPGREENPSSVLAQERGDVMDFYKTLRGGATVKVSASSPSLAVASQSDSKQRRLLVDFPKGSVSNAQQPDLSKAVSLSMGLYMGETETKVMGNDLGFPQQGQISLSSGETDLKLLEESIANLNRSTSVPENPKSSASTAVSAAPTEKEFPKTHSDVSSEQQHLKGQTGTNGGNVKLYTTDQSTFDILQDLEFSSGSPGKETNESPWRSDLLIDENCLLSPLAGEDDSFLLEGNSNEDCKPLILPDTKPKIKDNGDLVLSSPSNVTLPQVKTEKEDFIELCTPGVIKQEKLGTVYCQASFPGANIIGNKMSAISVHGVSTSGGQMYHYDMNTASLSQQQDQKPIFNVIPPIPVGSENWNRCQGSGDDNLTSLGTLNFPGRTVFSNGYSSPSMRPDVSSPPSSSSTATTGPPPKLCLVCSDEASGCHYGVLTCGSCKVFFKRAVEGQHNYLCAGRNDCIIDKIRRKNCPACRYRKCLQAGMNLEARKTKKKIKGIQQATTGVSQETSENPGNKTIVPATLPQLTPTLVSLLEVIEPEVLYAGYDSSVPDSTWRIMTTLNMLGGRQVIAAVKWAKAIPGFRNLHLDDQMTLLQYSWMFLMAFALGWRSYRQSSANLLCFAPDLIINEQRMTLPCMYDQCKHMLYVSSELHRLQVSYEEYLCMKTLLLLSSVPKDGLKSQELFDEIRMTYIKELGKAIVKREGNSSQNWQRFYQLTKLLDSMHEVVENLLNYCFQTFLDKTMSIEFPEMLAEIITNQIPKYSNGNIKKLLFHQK
Nature of the assay: Displacement of radiolabeled Dexamethasone from human glucocorticoid receptor by filter paper assay.

In assay [1] the test system is THP-1. Nature of the assay: Effect on ABCA1 gene expression in human differentiated THP1 cells relative to TO901317. The format is functional.
The target of assay [2] is T2, Oxysterols receptor LXR-alpha (Homo sapiens, UniProt Q13133).
The subject of assay [3] is THP-1. Nature of the assay: Effect on ABCA1 gene expression in human differentiated THP1 cells. Format: functional, cell-based.
For assay [4], the system named is HepG2. Description: Effect on SREBP1c gene expression in human HepG2 cells. Format: functional, cell-based.
The next assay concerns the target T3, Progesterone receptor (Homo sapiens, UniProt P06401).
T3 sequence (P06401 whole entry): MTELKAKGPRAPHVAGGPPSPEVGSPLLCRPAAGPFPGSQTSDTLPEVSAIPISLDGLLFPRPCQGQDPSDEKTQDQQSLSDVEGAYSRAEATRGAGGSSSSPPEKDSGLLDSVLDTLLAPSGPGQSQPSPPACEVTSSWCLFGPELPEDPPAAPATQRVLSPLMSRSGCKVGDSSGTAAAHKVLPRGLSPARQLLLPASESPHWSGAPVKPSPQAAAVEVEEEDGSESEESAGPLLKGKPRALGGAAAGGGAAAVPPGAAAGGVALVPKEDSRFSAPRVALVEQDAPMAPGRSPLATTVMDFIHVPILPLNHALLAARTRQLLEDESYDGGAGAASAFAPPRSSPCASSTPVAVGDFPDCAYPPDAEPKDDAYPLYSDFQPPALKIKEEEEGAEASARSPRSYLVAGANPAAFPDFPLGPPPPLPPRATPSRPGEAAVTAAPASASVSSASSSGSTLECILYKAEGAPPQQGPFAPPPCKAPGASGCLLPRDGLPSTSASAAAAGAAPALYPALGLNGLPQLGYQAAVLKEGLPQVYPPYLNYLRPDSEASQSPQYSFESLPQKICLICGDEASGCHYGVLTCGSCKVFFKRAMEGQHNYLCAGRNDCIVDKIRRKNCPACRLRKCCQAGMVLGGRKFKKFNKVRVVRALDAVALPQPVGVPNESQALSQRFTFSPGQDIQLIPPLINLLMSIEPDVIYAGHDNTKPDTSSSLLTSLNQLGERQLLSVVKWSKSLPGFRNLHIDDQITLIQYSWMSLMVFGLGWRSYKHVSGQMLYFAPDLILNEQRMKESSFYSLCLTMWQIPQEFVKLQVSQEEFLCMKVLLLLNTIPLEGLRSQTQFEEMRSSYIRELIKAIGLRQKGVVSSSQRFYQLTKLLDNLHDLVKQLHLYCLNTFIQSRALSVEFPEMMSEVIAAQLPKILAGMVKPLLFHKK
Description: Displacement of radiolabeled progesterone from human progesterone receptor by filter paper assay.

In assay [5] the test system is THP-1. Description: Stimulation of [3H]cholesterol efflux in human THP1 foam cells loaded with ac-LDL relative to TO901317. The format is functional.
Assay [6] deals with HepG2. Description: Effect on triglyceride accumulation in human HepG2 cells. Format: functional, cell-based.
Assay [7] concerns HepG2. Nature of the assay: Effect on triglyceride accumulation in human HepG2 cells relative to TO901317. Format: functional.
Assay [8] concerns HepG2. Nature of the assay: Effect on SREBP1c gene expression in human HepG2 cells relative to TO901317. The format is functional.
Assay [9] relates to THP-1. Nature of the assay: Stimulation of [3H]cholesterol efflux in human THP1 foam cells loaded with ac-LDL. The format is functional, cell-based.
Assay [10] deals with T2, Oxysterols receptor LXR-alpha. This is another data set of the same source.
The target in assay [11] is T4, Oxysterols receptor LXR-beta (Homo sapiens, UniProt P55055).
T4 sequence (P55055 whole entry): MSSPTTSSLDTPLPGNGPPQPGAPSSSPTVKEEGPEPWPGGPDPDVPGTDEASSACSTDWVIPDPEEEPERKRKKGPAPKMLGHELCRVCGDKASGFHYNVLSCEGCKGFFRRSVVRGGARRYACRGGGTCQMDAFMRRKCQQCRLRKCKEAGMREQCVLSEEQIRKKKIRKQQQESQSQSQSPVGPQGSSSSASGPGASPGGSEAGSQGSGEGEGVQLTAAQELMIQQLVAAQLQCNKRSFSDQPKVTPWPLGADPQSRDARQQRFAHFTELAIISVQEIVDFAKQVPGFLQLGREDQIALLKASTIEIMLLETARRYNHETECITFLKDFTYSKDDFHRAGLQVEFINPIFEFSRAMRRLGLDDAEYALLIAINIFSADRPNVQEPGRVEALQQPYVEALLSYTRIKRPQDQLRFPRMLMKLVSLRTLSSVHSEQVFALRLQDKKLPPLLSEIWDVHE

For assay [12], the target named is T4, Oxysterols receptor LXR-beta. Nature of the assay: Agonist activity at human recombinant LXRbeta ligand binding domain in human HuH7 cells co-transfected with fused Gal4-DBD by transactivation assay. The format is cell-based, Huh-7.

As to `Fc1ccc(-c2c3cccc(C(F)(F)F)c3nn2Cc2ccccc2F)cc1`, the IC50 at Glucocorticoid receptor was 7200 nM; in assay [2], 248 nM; at Progesterone receptor, > 10000 nM; in [11], 33 nM. In addition, the Efficacy was found to be 89% with THP-1 [1], 132% in the assay on THP-1 [5], 38% in the assay with HepG2 [7] and 72% with HepG2 [8]. Further, the EC50 with THP-1 [3] was found to be 551 nM; with HepG2 [4] it was 1220 nM; with HepG2 [6], 998 nM; in the assay with THP-1 [9], 549 nM; in assay [10], 6100 nM; in [12] it was 4150 nM.
With `Fc1ccc(-c2c3cccc(C(F)(F)F)c3nn2Cc2ccc(F)cc2Cl)cc1` [LXR-623], the IC50 on Glucocorticoid receptor is 1000 nM; in [2], 179 nM; on Progesterone receptor, > 1000 nM; in assay [11] it was 24 nM. In addition, the Efficacy in the assay with THP-1 [1] is reported as 100%; with THP-1 [5], 140%; in the assay with HepG2 [7], 35%; in the assay with HepG2 [8], 58%. Further, the half-maximal effective concentration (EC50) in the assay with THP-1 [3] amounted to 541 nM; in the assay on HepG2 [4], 2110 nM; in the assay on HepG2 [6] it was 1910 nM; in the assay on THP-1 [9] it was 1280 nM; in assay [10], 6660 nM; in assay [12], 3670 nM.
